Here are results for five compounds from US20190161480A1, “Chemical Compounds” (GLAXOSMITHKLINE INTELLECTUAL PROPERTY DEVELOPMENT LIMITED, priority 2016, published 2019).

The test system of one assay is Class I PI3-kinases. Particulars: read-out: IC50 against each of the Class I PI3-kinases, cited from earlier work.
In a further assay the target is CK2 protein kinase. The following applies: literature; cited from earlier work.
Assay [1] deals with T1, PI3Kδ (Homo sapiens, UniProt O00329). The assay is described as follows: PI3K HTRF assay, PI3K-delta. Also: 80 µM ATP. It is filed as biochemical. Particulars: read-out: pIC50 PI3Kδ (converted). Here is the method: (§1) The binding of compounds to PI3K-alpha/beta/delta/gamma is determined by homogeneous time resolved fluorescence (HTRF) assays as follows;
T1 sequence (O00329 whole entry): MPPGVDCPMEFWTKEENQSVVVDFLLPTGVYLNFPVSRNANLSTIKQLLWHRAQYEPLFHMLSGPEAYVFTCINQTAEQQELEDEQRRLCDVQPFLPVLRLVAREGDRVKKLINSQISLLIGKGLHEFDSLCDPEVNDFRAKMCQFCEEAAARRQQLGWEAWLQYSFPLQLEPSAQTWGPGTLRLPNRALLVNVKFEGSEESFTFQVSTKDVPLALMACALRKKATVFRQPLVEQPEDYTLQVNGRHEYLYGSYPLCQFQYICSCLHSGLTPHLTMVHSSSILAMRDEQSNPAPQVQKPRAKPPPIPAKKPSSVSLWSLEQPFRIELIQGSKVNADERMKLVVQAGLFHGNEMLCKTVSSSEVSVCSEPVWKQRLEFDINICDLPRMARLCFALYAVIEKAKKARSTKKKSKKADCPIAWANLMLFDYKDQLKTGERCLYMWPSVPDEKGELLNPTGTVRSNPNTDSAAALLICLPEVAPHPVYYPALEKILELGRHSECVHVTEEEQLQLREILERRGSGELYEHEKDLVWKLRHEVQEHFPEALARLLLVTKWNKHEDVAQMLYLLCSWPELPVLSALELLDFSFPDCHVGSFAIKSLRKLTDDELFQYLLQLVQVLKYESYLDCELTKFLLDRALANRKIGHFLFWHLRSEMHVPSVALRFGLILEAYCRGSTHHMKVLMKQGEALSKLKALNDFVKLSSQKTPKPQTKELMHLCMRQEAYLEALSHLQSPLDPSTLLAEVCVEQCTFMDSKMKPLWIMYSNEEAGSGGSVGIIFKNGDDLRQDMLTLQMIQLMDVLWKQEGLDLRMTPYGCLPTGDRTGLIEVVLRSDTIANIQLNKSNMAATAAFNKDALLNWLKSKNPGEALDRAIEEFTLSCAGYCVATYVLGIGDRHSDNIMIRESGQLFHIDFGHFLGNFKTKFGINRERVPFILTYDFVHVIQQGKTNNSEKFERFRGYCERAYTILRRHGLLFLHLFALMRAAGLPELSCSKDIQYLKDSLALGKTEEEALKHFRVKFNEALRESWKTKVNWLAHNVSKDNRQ
T1 sequence (P27986 whole entry partner): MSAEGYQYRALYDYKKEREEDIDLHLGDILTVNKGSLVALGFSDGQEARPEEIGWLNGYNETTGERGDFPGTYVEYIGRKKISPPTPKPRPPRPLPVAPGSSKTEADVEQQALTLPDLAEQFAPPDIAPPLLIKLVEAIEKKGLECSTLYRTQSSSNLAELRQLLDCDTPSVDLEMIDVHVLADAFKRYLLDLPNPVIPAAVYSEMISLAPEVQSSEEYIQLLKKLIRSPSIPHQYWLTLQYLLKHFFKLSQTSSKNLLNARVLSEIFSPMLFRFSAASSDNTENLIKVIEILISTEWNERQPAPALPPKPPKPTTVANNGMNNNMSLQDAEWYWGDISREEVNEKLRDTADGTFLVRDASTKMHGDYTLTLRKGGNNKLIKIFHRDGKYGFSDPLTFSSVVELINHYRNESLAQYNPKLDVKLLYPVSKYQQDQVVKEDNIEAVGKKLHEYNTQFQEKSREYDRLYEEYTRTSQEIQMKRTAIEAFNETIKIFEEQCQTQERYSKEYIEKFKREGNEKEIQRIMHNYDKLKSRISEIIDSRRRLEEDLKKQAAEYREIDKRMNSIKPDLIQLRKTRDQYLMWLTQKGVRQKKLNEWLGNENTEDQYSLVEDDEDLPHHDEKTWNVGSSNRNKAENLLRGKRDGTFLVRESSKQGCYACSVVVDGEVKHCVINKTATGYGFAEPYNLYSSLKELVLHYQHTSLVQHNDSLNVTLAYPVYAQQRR
(§2) Briefly, solid compound is dissolved in 100% DMSO at a concentration of 2 mM. Dilutions are prepared in 100% DMSO using a 1 in 4 serial step dilution. The dilutions are transferred to black low volume Greiner assay plates ensuring that the DMSO concentration is constant across the plate at 1% (0.1 μL/well).
(§3) PI3K Reaction Buffer (contains 50 mM HEPES pH 7.0 (NaOH), 150 mM NaCl, 10 mM MgCl2, 2.3 mM sodium cholate, […] CHAPS made up in milliQ water). Fresh DTT is added at a final concentration of 1 mM on the day of use.
(§4) Enzyme solutions: 1× PI3K Assay Buffer containing: • 550 pM PI3K-Alpha enzyme (275 pM final assay concentration) • 800 pM PI3K-Beta enzyme (400 pM final assay concentration) • 3 nM PI3K-Delta enzyme (1.5 nM final assay concentration) • 10 nM PI3K-Gamma enzyme (5 nM final assay concentration)
(§5) These concentrations are optimal to achieve a signal:background of between 1.5-4.5. The enzyme solution is added to columns 1-24 (3 μL/well) and plates are incubated for 15 minutes at room temperature.
(§6) Substrate solution: 1× PI3K Assay Buffer containing: • PI3K-Alpha: 500 μM ATP, 20 μM PIP2 and 120 nM biotin-PIP3.
(§7) This is added to all wells and plates are incubated for 1 hour at room temperature.
(§8) Detection solution: PI3K Detection Buffer (contains 50 mM HEPES pH 7.0 (HCl), 150 mM NaCl, 2.3 mM sodium cholate, 10 μM CHAPS, 240 mM potassium fluoride) containing 2 mM DTT (2× final assay concentration), 90 nM GRP-1 PH domain, 300 nM Streptavidin-APC and 24 nM Europium-anti-GST (6× final assay concentrations).
(§9) This is mixed left at room temperature (protected from light).
(§10) STOP solution: PI3K STOP Buffer (contains 50 mM HEPES pH 7.0 (HCl), 150 mM NaCl, 2.3 mM sodium cholate, 10 μM CHAPS, 150 mM EDTA).
(§11) Detection solution is diluted 1:1 with STOP solution and added to all wells (3 μL/well). Plates are covered and incubated on the bench for 45-60 minutes.
(§12) Plates are read on a PerkinElmer Envision, measuring TR-FRET between the complex formed between the GST-tagged PH domain and biotinylated PIP3 which both recruit fluorophores (Europium-labelled anti-GST & Strep-APC respectively). In the […] of an inhibitor, this complex is disrupted by the competitive action of non-biotinylated PIP3 (formed in the assay by the phosphorylation of PIP2 by the kinase & ATP). From this, the ratio of acceptor/donor was calculated (λex=317 nm, Δem donor=615 nm, Δem acceptor=665 nm) and used for data analysis.
On the technique in general: TR-FRET usually uses a lanthanide donor and a delayed reading to cut background.

The target of another assay is PI3Kβ (Homo sapiens, UniProt P42338). Nature of the assay: PI3K HTRF assay, PI3K-beta. Also: 400 µM ATP. It is filed as biochemical. The following applies: read-out: pIC50 PI3Kβ (converted). Here is the method:
as §1, §2, §3, §4, §5, §6, §7, §8, §9, §10, §11, §12

The next assay has as its target PI3Kα (Homo sapiens, UniProt P42336). Nature of the assay: PI3K HTRF assay, PI3K-alpha. Also: 250 µM ATP. It is filed as biochemical. The following applies: read-out: pIC50 PI3Kα (converted). How it is done: as §1, §2, §3, §4, §5, §6, §7, §8, §9, §10, §11, §12
Assay [2] has as its target T1, PI3Kδ. Nature of the assay: PI3Kδ jump dilution experiment. It is filed as biochemical. The following applies: 15 min incubation, 100-fold dilution, read for 30 minutes. How it is done: Irreversibility of the PI3Kδ-Inhibitor complex, and reversibility of the non-covalent controls, was determined by jump-dilution assay as follows:
PI3Kδ enzyme was made up to a 100× assay concentration (final assay concentration=6 nM) in buffer solution (contains 50 mM HEPES pH 7.0 (NaOH), 150 mM NaCl, 10 mM MgCl2, 2.3 mM sodium cholate, 10 μM CHAPS made up in milliQ water).
100× enzyme solution was added to compound wells (20 μL/well), and incubated for 15 mins, after which point the assay was diluted 100-fold with commercially available ADP QUEST substrate solution, available from DiscoverX (calatog number: 90-0071), (3200 μL DiscoverX Reagent A, 6400 μL DiscoverX Reagent B, 1 mM ATP and 40 μM PIP2). Production of fluorescence signal was then measured immediately using a Tecan Safire II plate reader at 30 second intervals for 30 minutes (λex=544 nm, λem=590 nm).

The target in the next assay is PI3Kγ (Homo sapiens, UniProt P48736). The assay is described as follows: PI3K HTRF assay, PI3K-gamma. Also: 15 µM ATP. The following applies: read-out: pIC50 PI3Kγ (converted). It is filed as biochemical. Here is the method:
as §1, §2, §3, §4, §5, §6, §7, §8, §9, §10, §11, §12

In assay [3] the test system is amphetamine-induced psychosis. The following applies: Law et al. 2012; cited from earlier work.
Assay [4] concerns the target T1, PI3Kδ. Nature of the assay: Protein mass spectrometry: covalent adduct assessment and competition experiment. It is filed as binding. The following applies: 10:1 inhibitor:protein, incubated overnight. How it is done: Compounds were incubated with 1 μM protein in a 10:1 inhibitor:protein ratio in buffer containing 50 mM HEPES, pH 7.0 (NaOH), 150 mM NaCl, 10 mM MgCl2, 2.3 mM cholate, 10 μM CHAPS. After the desired time, the assays were quenched with a 10% formic acid solution, and analysed by LCMS using an Agilent 6224 TOF LC/MS equipped with Agilent 1200 Series autosampler. Analytes were separated on a Polymer Labs (Agilent) PLRP-S column (50 mm×1 mm internal diameter, 5 μm particle size). LC conditions were 0.5 mL·min^−1 flow rate, 70° C., 10 μL injection volume. Gradient elution with (A) water containing 0.2% (v/v) formic acid and (B) acetonitrile containing 0.2% (v/v) formic acid. Gradient conditions were initially 10% B, increasing to 30% after 0.5 min, and then linearly to 80% B over 4.5 min, prior to a 1.2 min flush with 100% B and then a 1.9 minute equilibration with 10% B prior to the next injection. Mass spectra were then deconvoluted using Agilent MassHunter Qualitative Analysis version B.06.00 over the mass range 70-170 kDa to obtain the intact protein mass.
A potent reversible ATP competitive inhibitor was incubated with 1 μM protein in a 10:1 inhibitor:protein ratio in buffer containing 50 mM HEPES, pH 7.0 (NaOH), 150 mM NaCl, 10 mM MgCl2, 2.3 mM cholate, 10 μM CHAPS at room temperature. […] The assay was quenched at 5 min and analysed using the procedure detailed above.

Read-outs that look alike come from different tables or passages of the source. Bounds are passed on as bounds.

PI3Kγ, sequence (P48736 whole entry, species assumed): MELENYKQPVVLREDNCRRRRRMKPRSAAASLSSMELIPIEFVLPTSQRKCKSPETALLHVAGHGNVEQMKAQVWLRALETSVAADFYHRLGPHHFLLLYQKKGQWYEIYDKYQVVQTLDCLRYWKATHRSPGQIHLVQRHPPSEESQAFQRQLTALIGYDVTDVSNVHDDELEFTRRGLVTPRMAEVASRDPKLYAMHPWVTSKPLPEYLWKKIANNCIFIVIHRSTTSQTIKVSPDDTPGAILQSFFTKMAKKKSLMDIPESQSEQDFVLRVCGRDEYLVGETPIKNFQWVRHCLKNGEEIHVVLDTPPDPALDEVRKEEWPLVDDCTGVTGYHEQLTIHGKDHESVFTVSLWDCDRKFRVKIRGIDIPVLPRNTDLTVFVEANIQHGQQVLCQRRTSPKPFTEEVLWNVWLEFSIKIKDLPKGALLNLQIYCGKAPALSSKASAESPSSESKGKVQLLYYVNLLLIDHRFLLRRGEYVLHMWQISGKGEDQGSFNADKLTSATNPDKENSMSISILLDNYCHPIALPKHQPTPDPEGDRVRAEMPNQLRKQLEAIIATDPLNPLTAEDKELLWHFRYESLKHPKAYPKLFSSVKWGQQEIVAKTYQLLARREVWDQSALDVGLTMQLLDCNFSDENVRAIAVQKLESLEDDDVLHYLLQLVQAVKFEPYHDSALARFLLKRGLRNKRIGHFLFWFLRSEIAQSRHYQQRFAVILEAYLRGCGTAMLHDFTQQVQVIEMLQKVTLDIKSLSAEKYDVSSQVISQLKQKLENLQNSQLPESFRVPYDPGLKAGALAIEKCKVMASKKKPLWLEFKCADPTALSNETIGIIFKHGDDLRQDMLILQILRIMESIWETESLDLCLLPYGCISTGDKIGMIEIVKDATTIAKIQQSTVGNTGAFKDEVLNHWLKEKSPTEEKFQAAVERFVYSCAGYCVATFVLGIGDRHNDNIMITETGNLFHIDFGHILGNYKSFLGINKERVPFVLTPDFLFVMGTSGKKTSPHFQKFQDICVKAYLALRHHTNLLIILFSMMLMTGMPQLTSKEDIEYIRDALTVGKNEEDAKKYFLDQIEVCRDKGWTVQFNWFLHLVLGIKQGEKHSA
PI3Kα, sequence (P42336 whole entry, species assumed): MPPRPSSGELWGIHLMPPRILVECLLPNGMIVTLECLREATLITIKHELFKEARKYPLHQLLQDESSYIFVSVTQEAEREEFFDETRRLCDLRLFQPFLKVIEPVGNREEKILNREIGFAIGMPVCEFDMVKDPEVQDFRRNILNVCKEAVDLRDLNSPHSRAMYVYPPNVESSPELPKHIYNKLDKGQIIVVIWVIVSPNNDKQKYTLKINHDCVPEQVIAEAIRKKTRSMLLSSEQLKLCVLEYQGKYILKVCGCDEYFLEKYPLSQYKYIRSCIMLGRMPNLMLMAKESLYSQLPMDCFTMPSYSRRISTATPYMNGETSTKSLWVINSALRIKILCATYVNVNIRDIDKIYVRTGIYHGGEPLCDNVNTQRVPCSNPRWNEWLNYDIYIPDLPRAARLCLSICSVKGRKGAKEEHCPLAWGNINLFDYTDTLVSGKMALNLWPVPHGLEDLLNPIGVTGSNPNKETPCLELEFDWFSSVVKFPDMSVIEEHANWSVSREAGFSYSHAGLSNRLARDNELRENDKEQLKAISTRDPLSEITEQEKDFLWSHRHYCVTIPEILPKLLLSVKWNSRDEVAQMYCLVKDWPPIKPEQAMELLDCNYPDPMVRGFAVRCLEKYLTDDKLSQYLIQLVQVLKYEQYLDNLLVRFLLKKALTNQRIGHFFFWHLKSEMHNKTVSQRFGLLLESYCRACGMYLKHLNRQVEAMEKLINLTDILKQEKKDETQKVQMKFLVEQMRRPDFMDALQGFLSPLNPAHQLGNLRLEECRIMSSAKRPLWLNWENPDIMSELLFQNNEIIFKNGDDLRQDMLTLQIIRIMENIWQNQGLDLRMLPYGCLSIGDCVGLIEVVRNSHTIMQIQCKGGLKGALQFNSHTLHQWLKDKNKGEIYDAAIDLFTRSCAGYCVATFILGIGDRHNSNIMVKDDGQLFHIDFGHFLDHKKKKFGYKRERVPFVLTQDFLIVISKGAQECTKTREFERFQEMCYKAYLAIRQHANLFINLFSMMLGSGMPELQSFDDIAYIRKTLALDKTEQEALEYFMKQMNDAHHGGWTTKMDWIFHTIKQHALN
PI3Kα, sequence (P27986 whole entry partner, species assumed): as the sequence (P27986 whole entry partner) above
PI3Kβ, sequence (P42338 whole entry, species assumed): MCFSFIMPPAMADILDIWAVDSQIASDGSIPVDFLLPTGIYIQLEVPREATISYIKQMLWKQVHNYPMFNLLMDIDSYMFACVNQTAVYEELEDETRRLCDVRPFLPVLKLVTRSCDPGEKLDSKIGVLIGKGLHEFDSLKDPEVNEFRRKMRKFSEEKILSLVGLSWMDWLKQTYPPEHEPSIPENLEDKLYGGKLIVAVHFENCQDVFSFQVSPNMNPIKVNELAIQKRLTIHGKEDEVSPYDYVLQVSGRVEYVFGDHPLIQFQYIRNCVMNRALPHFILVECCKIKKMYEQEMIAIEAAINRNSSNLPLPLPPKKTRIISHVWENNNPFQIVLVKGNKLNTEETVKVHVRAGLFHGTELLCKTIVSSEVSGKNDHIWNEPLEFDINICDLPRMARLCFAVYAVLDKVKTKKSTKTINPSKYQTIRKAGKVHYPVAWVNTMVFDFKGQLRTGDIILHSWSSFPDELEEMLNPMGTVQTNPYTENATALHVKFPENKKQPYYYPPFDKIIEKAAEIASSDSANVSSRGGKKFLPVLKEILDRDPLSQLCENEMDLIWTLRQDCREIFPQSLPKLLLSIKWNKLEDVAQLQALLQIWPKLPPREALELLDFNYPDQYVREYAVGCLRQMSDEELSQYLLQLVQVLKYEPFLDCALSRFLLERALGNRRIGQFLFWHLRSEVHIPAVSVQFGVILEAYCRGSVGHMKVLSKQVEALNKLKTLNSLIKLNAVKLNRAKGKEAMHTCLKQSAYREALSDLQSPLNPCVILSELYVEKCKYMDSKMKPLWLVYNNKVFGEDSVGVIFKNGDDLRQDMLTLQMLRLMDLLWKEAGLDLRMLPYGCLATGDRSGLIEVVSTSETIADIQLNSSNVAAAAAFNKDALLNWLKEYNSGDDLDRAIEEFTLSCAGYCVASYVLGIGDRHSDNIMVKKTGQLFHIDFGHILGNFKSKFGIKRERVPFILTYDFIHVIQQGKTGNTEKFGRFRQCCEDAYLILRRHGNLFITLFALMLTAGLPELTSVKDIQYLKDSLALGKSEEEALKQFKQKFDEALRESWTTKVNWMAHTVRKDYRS
PI3Kβ, sequence (P27986 whole entry partner, species assumed): as the sequence (P27986 whole entry partner) above

In the case of `O=c1cc(N2CCOCC2)oc2c(-c3ccccc3)cccc12` [LY294002], the IC50 with Class I PI3-kinases (Fruman et al. 1998) is 15 to 20 µM; at CK2 protein kinase, 5 to 10 µM.

For the compound `COC(=O)c1cc(-c2cc(-c3ncc(CN4CCN(C(C)C)CC4)o3)c3cn[nH]c3c2)cnc1OC.O=CO` [Example 1, Methyl 5-(4-(5-((4-isopropylpiperazin-1-yl)methyl)oxazol-2-yl)-1H-indazol-6-yl)-2-methoxynicotinate], the IC50 at PI3Kδ [1] was 0.0398 µM; on PI3Kβ, greater than 31.6 µM; on PI3Kα, 10 µM; on PI3Kγ, greater than 31.6 µM. The “Recovery of enzyme activity after jump dilution” value at PI3Kδ [2] is recorded as “Recovery of enzyme activity was observed”.

As to `Cc1ccccc1-n1c(Cn2cnc3c(N)ncnc32)nc2cccc(C)c2c1=O` [IC87114], the “Efficacy in mouse model of amphetamine-induced psychosis” value in assay [3] was “remarkable efficacy”.

For `COc1ncc(-c2cc(-c3ncc(CN4CCN(C(C)C)CC4)o3)c3cn[nH]c3c2)cc1C(=O)O` [Example 2, 5-(4-(5-((4-Isopropylpiperazin-1-yl)methyl)oxazol-2-yl)-1H-indazol-6-yl)-2-methoxynicotinic acid], the IC50 at PI3Kδ [1] is 0.0126 µM; on PI3Kβ it was 20 µM; at PI3Kα, 12.6 µM; on PI3Kγ it was 15.8 µM. In addition, on PI3Kδ [2], the “Recovery of enzyme activity after jump dilution” value is given as “Recovery of enzyme activity was observed”. Further, on PI3Kδ [4], the “Covalent modification of PI3Kδ (protein mass spectrometry)” value is listed as “no modification”.

`COC[C@H]1OC(=O)c2coc3c2[C@@]1(C)C1=C(C3=O)[C@@H]2CCC(=O)[C@@]2(C)C[C@H]1OC(C)=O` [Wortmannin]: the IC50 with Class I PI3-kinases (literature) was 0.001 to 0.01 µM.
